Consider nine molecules from US6063791A, “N-benzenesulfonyl-L-proline derivatives, method for preparing and therapeutic use” (Fournier Industrie et Sante, priority 1996, dated 2000).

Counter-ions that a name gives are not always drawn.

By inhibition is commonly meant how much of the control response was suppressed.

The target in this assay is T1, guinea-pig B2 receptor (Cavia porcellus, UniProt O70526).
T1 construct: Ileum segments are isolated from male guinea-pigs; tissue Iffa Credo, l'Arbresle, France (animals); host or cells: ileum membranes of male Dunkin-Hartley guinea-pigs
T1 sequence (O70526 1-372): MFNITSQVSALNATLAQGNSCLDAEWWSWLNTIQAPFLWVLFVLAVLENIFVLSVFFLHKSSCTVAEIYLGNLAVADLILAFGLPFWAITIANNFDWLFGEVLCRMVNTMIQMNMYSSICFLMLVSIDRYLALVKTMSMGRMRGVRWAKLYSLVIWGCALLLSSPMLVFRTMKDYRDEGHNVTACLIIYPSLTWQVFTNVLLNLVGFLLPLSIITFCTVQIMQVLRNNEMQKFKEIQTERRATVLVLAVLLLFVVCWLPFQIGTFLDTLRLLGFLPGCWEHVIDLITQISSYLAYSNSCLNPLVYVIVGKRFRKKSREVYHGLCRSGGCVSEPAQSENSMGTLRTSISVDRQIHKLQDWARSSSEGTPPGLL
Put plainly: Inhibition of [3H]-bradykinin binding to guinea-pig ileum membranes. As to conditions: test compound at 10^-6 M, [3H]-bradykinin 120 pM, 90 min at 20° C., read-out: Activity (percentage inhibition of the binding of [3H]-bradykinin). Here is the method:
The following pharmacological test is used: Ileum segments are isolated from male guinea-pigs [of the Dunkin-Hartley strain (Iffa Credo, l'Arbresle, France)] and ground in the following TES buffer: TES 25 mM, 1,10-phenanthroline 1 mM (pH 6.8), bacitracin 140 μg/ml, BSA 1 g/l. The membranes are then isolated by centrifugation (18,000 rpm; 20 min; 4° C.). The binding studies are carried out in this TES buffer using [^3 H]-bradykinin (120 pM) and 50 μg of membrane protein per test (final volume 500 μl) with an equilibrium time of 90 min at 20° C. The percentage inhibition of the binding of [^3 H]-bradykinin is then determined in the presence of one of the test compounds according to the invention at a concentration of 10^-6 M.
The results obtained from these tests (shown as "activity") are collated in Table I below with reference to the Examples given in the description. In this Table, Pos indicates the position of the amidine group on the aromatic (or heteroaromatic) ring relative to the group B; in the "Salt" column, Ch1 denotes that the compound is in the form of the hydrochloric acid salt and Ms denotes that it is in the form of the methanesulfonic acid salt.
Take `CCN(CCCNC(=O)[C@@H]1CCCN1S(=O)(=O)c1ccc(Cl)c(COc2cccc3c(C)cc(C)nc23)c1Cl)C(=O)c1ccc(C(=N)N)cc1` [Example 14, 1-[[3-[(2,4-Dimethylquinolin-8-yl)oxymethyl]-2,4-dichlorophenyl]sulfonyl]-N-3-[[ethyl]-[[4-(aminoiminomethyl)phenyl]carbonyl]amino]propyl]-2(S)-pyrrolidine carboxamide dihydrochloride]: the inhibition at 1 µM was 97%.

As for `Cc1cc(C)c2cccc(OCc3c(Cl)ccc(S(=O)(=O)N4CCC[C@H]4C(=O)NCCCNC(=O)c4ccc(C(=N)N)cc4)c3Cl)c2n1` [Example 6, 1-[[3-[(2,4-Dimethylquinolin-8-yl)oxymethyl]-2,4-dichlorophenyl]sulfonyl]-N-[3-[[4-(aminoiminomethyl)phenyl]carbonylamino]propyl]-2(S)-pyrrolidine-carboxamide dihydrochloride], the inhibition at 1 µM amounted to 99%.

On to `Cc1cc(C)c2cccc(OCc3c(Cl)ccc(S(=O)(=O)N4CCC[C@H]4C(=O)NCCCCNC(=O)c4ccc(C(=N)N)cc4)c3Cl)c2n1` [Example 19, 1-[[3-[(2,4-Dimethylquinolin-8-yloxymethyl]-2,4-dichlorophenyl]sulfonyl]-N-[4-[[4-(aminoiminomethyl)phenyl]carbonylamino]butyl]-2(S)-pyrrolidinecarboxamidedihydrochloride], for which the inhibition at 1 µM was 98%.

Turning to `Cc1cc(C)c2cccc(OCc3c(Cl)ccc(S(=O)(=O)N4CCC[C@H]4C(=O)NCCCNC(=O)Cc4ccc(C(=N)N)cc4)c3Cl)c2n1` [Example 8, 1-[[3-[(2,4-Dimethylquinolin-8-yl)oxymethyl]-2,4-dichlorophenyl]sulfonyl]-N-[-[[2-[4(aminoiminomethyl)phenyl]-1-oxoethyl]amino]propyl]-2(S)-pyrrolidinecarboxamide dihydrochloride], the inhibition at 1 µM came out at 97.5%. Consider `Cc1cc(C)c2cccc(OCc3c(Cl)ccc(S(=O)(=O)N4CCC[C@H]4C(=O)NCCNC(=O)COc4ccc(C(=N)N)cc4)c3Cl)c2n1` [Example 4, 1-[[3-[(2,4-Dimethylquinolin-8-yl)oxymethyl]-2,4-dichlorophenyl]sulfonyl]-N-[2-[[2-[4(aminoiminomethyl)phenoxy]-1-oxoethyl]amino]ethyl]-2(S)-pyrrolidinecarboxamide dihydrochloride], for which the inhibition at 1 µM was 95.5%. On to `Cc1cc(C)c2cccc(OCc3c(Cl)ccc(S(=O)(=O)N4CCC[C@H]4C(=O)NCCCN(C)C(=O)c4ccc(C(=N)N)cc4)c3Cl)c2n1` [Example 16, 1-[[3-[(2,4-Dimethylquinolin-8-yl)oxymethyl]-2,4-dichlorophenyl]sulfonyl]-N-[3-[[methyl]-[[4(aminoiminomethyl)phenyl]carbonyl]amino]propyl]-2(S)-pyrrolidinecarboxamide dihydrochloride], for which the inhibition at 1 µM was determined as 100%. With `Cc1cc(C)c2cccc(OCc3c(Cl)ccc(S(=O)(=O)N4CCC[C@H]4C(=O)NCCCNC(=O)COc4ccc(C(=N)N)cc4)c3Cl)c2n1` [Example 10, 1-[[3-[(2,4-Dimethylquinolin-8-yl)oxymethyl]-2,4-dichlorophenyl]sulfonyl]-N-[3-[[2-[4-(aminoiminomethyl)phenoxy]-1-oxoethyl]amino]propyl]-2(S)-pyrrolidinecarboxamide dihydrochloride] the figure was 98.8%; with `Cc1cc(C)c2cccc(OCc3c(Cl)ccc(S(=O)(=O)N4CCC[C@H]4C(=O)NCCNC(=O)c4ccc(C(=N)N)cc4)c3Cl)c2n1` [Example 2, 1-[[3-[(2,4-Dimethylquinolin-8-yl)oxymethyl]-2,4-dichlorophenyl]sulfonyl]-N-[2-[[4-(aminoiminomethyl)phenyl]carbonylamino]ethyl]-2(S)-pyrrolidine-carboxamide dihydrochloride], 92%; with `Cc1cc(C)c2cccc(OCc3c(Cl)ccc(S(=O)(=O)N4CCC[C@H]4C(=O)NCCCCCNC(=O)c4ccc(C(=N)N)cc4)c3Cl)c2n1` [Example 21, 1-[[3-[(2,4-Dimethylquinolin-8-yl)oxymethyl]-2,4-dichlorophenyl]sulfonyl]-N-[5-[[4-(aminoiminomethyl)phenyl]carbonylamino]pentyl]-2(S)-pyrrolidinecarboxamide dihydrochloride], 100%.
